In patent US5085739A, “Separation of the propyl alcohols from water by azeotropic or extractive distillation” (priority 1991, dated 1992):
Where a name gives a salt, the structure may show the parent alone.

Columns and labels:
[1] = vapor-liquid equilibrium still, isopropanol-water azeotrope with agent; conditions: isopropanol from water, agent in vapor-liquid equilibrium still, water as overhead
Excerpt: In every case, the starting material was the propanol-water azeotrope. The relative volatilities are listed for each of the agents.

[2] = vapor-liquid equilibrium still, n-propanol-water azeotrope with agent; conditions: for Relative Volatility: n-propanol from water
Excerpt: The data in Table 2, 3, 5, 6 and 7 were obtained in a vapor-liquid equilibrium still. In every case, the starting material was the propanol-water azeotrope. The relative volatilities are listed for each of the agents.

[3] = glass perforated plate rectification column, n-propanol from water; assay type: physicochemical; conditions: for Relative Volatility: extractive mode, 2 hrs; for Weight % Water, Bottoms / Weight % n-Propanol, Bottoms / Weight % Water, Overhead / Weight % n-Propanol, Overhead: rectification column
Procedure: A solution comprising 288 grams of n-propanol and 112 grams of water was placed in the stillpot of the perforated plate column. When refluxing began, an extractive agent comprising n-butyl acetate was pumped into the column at a rate of 15/min/ml. The temperature of the extractive agent as it entered the column was 85° C. After establishing the feed rate of the extractive agent, the heat input to the n-propanol-water in the stillpot was adjusted to give a total reflux rate of 40 ml/min. After two hours of operation, the overhead and bottoms samples of approximately two ml. were collected and analysed.
Two hundred grams of the n-propanol-water azeotrope and 85 grams of n-amyl formate as the azeotrope former were charged to the 7.3 theoretical plate column and refluxed at total reflux for four hours.

[4] = glass perforated plate rectification column (7.3 theoretical plates), isopropanol from water; assay type: physicochemical; conditions: for Weight % Isopropanol, Bottoms / Weight % Water, Bottoms / Weight % Isopropanol, Overhead / Weight % Water, Overhead: rectification column
Procedure: A solution comprising 175 grams of isopropanol and 25 grams of water was placed in the stillpot of a 7.3 theoretical plate perforated plate column. […] The temperature of the extractive agent as it entered the column was 75° C. After establishing the feed rate of the extractive agent, the heat input to the isopropanol-water in the stillpot was adjusted to give a total reflux rate of 40 ml/min.
After two hours of operation, the overhead and bottoms samples of approximately two ml. were collected and analysed by gas chromatography.

[5] = as above; assay type: physicochemical; conditions: azeotropic
[6] = extractive distn., * brings n-propanol out as overhead
[7] = extractive distn., water as overhead
[8] = butoxypropanol four hours, n-amyl acetate 14 hours

With `CC(=O)C(C)C` [3-Methyl-2-butanone] the “Relative Volatility” value [1] was 1.24.

In the case of `OCCOCCO` [Diethylene glycol], the “Relative Volatility” value [1] is reported as 1.80.

In the case of `CCCC(=O)OCC` [Ethyl butyrate], the “Relative Volatility” value [1] is reported as 1.46.

For `O=C1OCCO1` [Ethylene carbonate], the “Relative Volatility” value [2, 6] was 1.3.

With `CCCCCCOC=O` [n-Hexyl formate] the “Relative Volatility” value [1] was 1.52.

For `CCC(=O)c1ccccc1` [Propiophenone], the “Relative Volatility” value [1] was 1.31.

For `CCCC(=O)OCC(C)C` [Isobutyl butyrate], the “Relative Volatility” value ([2]; azeotropic distn.) was 1.2.

With `CCCCCCOC(C)=O` [Hexyl acetate] the “Relative Volatility” value ([2]; azeotropic distn.) was 3.4 and the “Relative Volatility” value [1] was 1.31.

With `CCCCCC(C)=O` [2-Heptanone] the “Relative Volatility” value [2, 7] was 1.88 and the “Relative Volatility” value [1] was 1.32.

With `COCCO` [Ethylene glycol methyl ether] the “Relative Volatility” value [1] was 1.60.

With `OC1CCCCCCCCCCC1` [Cyclododecanol] the “Relative Volatility” value [2, 7] was 1.43.

In the case of `CCCCCCCCCCCO` [Undecyl alcohol], the “Relative Volatility” value [2, 7] is reported as 1.39.

With `OCCCCCCO` [1,6-Hexanediol] the “Relative Volatility” value [3] was 1.11, the “Weight % Water, Bottoms” value [3] was 23.6 Weight % and the “Weight % n-Propanol, Bottoms” value [3] was 76.4 Weight %. For the same compound, the “Weight % Water, Overhead” value [3] was 38.6 Weight %, the “Weight % n-Propanol, Overhead” value [3] was 61.4 Weight % and the “Relative Volatility” value [2, 7] was 1.31.

In the case of `CCCCO` [1-Butanol], the “Relative Volatility” value ([4]; extractive mode, 2 hrs, 7.3 theoretical plates) is reported as 1.20, the “Weight % Isopropanol, Bottoms” value [4] is reported as 87.9 Weight % and the “Weight % Water, Bottoms” value [4] is reported as 12.1 Weight %. For the same compound, the “Weight % Isopropanol, Overhead” value [4] was 65.3 Weight % and the “Weight % Water, Overhead” value [4] was 34.7 Weight %.

In the case of `CCCCC(=O)CC` [3-Heptanone], the “Relative Volatility” value ([2]; azeotropic distn.) is reported as 4.3.

For `OCCCCCO` [1,5-Pentanediol], the “Relative Volatility” value [2, 7] was 1.22 and the “Relative Volatility” value [1] was 1.22.

For `CCCCCCCCCCO` [n-Decanol], the “Relative Volatility” value [1] was 1.38.

For `CCCCCOC(C)=O` [n-Amyl acetate], the “liquid composition, n-propanol” value [2, 8] was 67.3%, the “liquid composition, water” value [2, 8] was 32.7% and the “vapor composition, n-propanol” value [2, 8] was 58%. The “vapor composition, water” value [2, 8] was 42%, the “Relative Volatility” value ([2]; azeotropic distn.) was 1.5 and the “Relative Volatility” value [1] was 1.30.

For `CC(=O)CCC(C)C` [Methyl isoamyl ketone], the “Relative Volatility” value [1] was 1.32.

In the case of `CCC(C)O` (stereo not drawn) [2-Butanol], the “Relative Volatility” value [1] is reported as 1.36.

With `CCCCOC(=O)c1ccccc1` [Butyl benzoate] the “Relative Volatility” value [1] was 1.36.

With `C=COCCCC` [Vinyl n-butyl ether] the “Weight % Isopropanol, Bottoms” value [4] was 80.3 Weight %, the “Weight % Water, Bottoms” value [4] was 5.1 Weight % and the “Weight % Isopropanol, Overhead” value [4] was 28.5 Weight %. For the same compound, the “Weight % Water, Overhead” value [4] was 14.5 Weight %, the “Weight % Agent, Bottoms” value ([5]; bottoms) was 14.6 Weight % and the “Weight % Agent, Overhead” value ([5]; overhead) was 57.0 Weight %.

With `CCCCOC(C)=O` [n-Butyl acetate] the “Relative Volatility” value ([3]; * n-propanol comes off as overhead) was 1.32, the “Weight % Water, Bottoms” value [3] was 73.7 Weight % and the “Weight % n-Propanol, Bottoms” value [3] was 26.3 Weight %. The “Weight % Water, Overhead” value [3] was 27.7 Weight %, the “Weight % n-Propanol, Overhead” value [3] was 72.3 Weight % and the “Relative Volatility” value [2, 6] was 1.7. For the same compound, the “Relative Volatility” value [1] was 1.28.
